In experiment [1] the target is T1, BCDIN3D (Homo sapiens, UniProt Q7Z5W3).
T1 sequence (Q7Z5W3 1-292): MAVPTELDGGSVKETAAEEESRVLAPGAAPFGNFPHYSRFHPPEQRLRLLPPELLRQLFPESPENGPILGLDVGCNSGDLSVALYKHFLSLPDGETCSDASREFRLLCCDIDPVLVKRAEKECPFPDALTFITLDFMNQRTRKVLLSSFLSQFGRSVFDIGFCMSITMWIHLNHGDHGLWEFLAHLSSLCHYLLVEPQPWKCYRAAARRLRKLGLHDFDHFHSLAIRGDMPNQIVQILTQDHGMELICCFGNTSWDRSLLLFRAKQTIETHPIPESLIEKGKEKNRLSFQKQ
In words: BCDIN3D InCellPulse thermal stability assay in transfected A549 cells. It is filed as cell-based. To be noted: transiently transfected A549 cells, heat shock 58° C. 15 min. On the procedure: BCDIN3D InCellPulse™ Assay
The thermal stability assay was performed with lipofectamine 3000 transiently transfected A549 using the plasmid pICP-ePL-BCDIN3 Da. This plasmid encodes for BCDIN3D N-terminally fused to a Prolabel (ePL), complementing a split β-Galactosidase Enzyme System InCELL Pulse Technology (InCELL Hunter Detection Kit, DiscoverX/Eurofins, cat: 96-0079L). 20 μl A549 cells (1500 cell/well) were added with a multidrop device to compounds to a final DMSO concentration of 0.6% in 384-well polypropylene plate format in IMDM medium and pre-incubated with the compounds for 1 h at 37° C. and 5% CO2. Subsequently, a heat shock was applied to the entire sealed plate in a 58° C. water bath for 15 min. The plates were cooled to RT, spun down and 25 μl/well of EA Detection Solution at 3.3× (InCELL Hunter Detection Kit) was added per well. 21 μl of the mixture was added to a black 384-well measurement plate (Corning, PS, black, Flat Bottom, #3575), mix for 30 minutes on a plate shaker at RT. Finally, the luminescence was measured with a Perkin Elmer EnVision with 0.2 s measurement time in luminescence mode.

Experiment [2] deals with T1, BCDIN3D. In words: BCDIN3D IC50 RFMS (RapidFire) assay with mini-helix. The note with it: mini-helix substrate 0.2 μM, SAM 6 μM, 25 nM enzyme. Format: biochemical. In short, it runs like this:
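25 nM enzyme preincubated 10 min at room temperature with compound (1% DMSO) in 25 mM Tris pH 8.0, 10 mM DTT, 1 mM EDTA, 0.03% BSA. Reaction started with 0.2 μM mini-helix plus 6 μM SAM, run 1 h at 37 °C, quenched with TCA; SAH product quantified by RapidFire MS against isotopic SAH standards.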

For orientation: IC50 means the point on the concentration scale where inhibition reaches its midpoint. Read a low IC50 as greater potency in that assay. With `Cn1ncc2c(Nc3cc(F)c(Cl)c(F)c3)nc(NCC3(N)CC3)nc21` [Compound 2.20, 6-N-[(1-aminocyclopropyl)methyl]-4-N-(4-chloro-3,5-difluorophenyl)-1-methylpyrazolo[3,4-d]pyrimidine-4,6-diamine], the IC50 in experiment [1] amounted to 887 nM; in experiment [2] it was 179 nM.
For `Cn1ncc2c(Nc3cccc(OC(F)F)c3)nc(NCC3(N)CC3)nc21` [Compound 2.21, 6-N-[(1-aminocyclopropyl)methyl]-4-N-[3-(difluoromethoxy)phenyl]-1-methylpyrazolo[3,4-d]pyrimidine-4,6-diamine], in that order: 2470 nM and 514 nM.
For `CC(C)Oc1ccc(Nc2nc(NCC3(N)CC3)nc3c2cnn3C)cc1` [Compound 2.22, 6-N-[(1-aminocyclopropyl)methyl]-1-methyl-4-N-(4-propan-2-yloxyphenyl)pyrazolo[3,4-d]pyrimidine-4,6-diamine], in that order: 1500 nM and 332 nM.
In the case of `Cn1ncc2c(Nc3ccc(Cl)c(F)c3)nc(NCC3(N)CC3)nc21` [Compound 2.23], the IC50 in experiment [1] is 473 nM; in experiment [2] it was 59.1 nM.
With `Cn1ncc2c(Nc3cccc(F)c3F)nc(NCC3(N)CC3)nc21` [Compound 2.24, 6-N-[(1-aminocyclopropyl)methyl]-4-N-(2,3-difluorophenyl)-1-methylpyrazolo[3,4-d]pyrimidine-4,6-diamine], the IC50 came to 3500 nM in experiment [1] and 2460 nM in experiment [2].
As for `Cn1ncc2c(Nc3cc(F)ccc3F)nc(NCC3(N)CC3)nc21` [Compound 2.25, 6-N-[(1-aminocyclopropyl)methyl]-4-N-(2,5-difluorophenyl)-1-methylpyrazolo[3,4-d]pyrimidine-4,6-diamine], the figures for the IC50 in experiment [1] and in experiment [2] were 3520 nM and 1540 nM, respectively.
`Cn1ncc2c(NCc3ccc(F)cc3F)nc(NCC3(N)CC3)nc21` [Compound 2.26]: the 50% inhibitory concentration (IC50) in experiment [1] was found to be 4650 nM; in experiment [2] it was 1000 nM.
Take `Cn1ncc2c(Nc3ccc(F)c(Cl)c3)nc(NCC3(N)CC3)nc21` [Compound 2.27, 6-N-[(1-aminocyclopropyl)methyl]-4-N-(3-chloro-4-fluorophenyl)-1-methylpyrazolo[3,4-d]pyrimidine-4,6-diamine]: the IC50 in experiment [1] worked out at 1810 nM; in experiment [2], 262 nM.
For `Cn1ncc2c(Nc3ccc(Cl)cc3)nc(NCC3(N)CC3)nc21` [Compound 2.28, 6-N-[(1-aminocyclopropyl)methyl]-4-N-(4-chlorophenyl)-1-methylpyrazolo[3,4-d]pyrimidine-4,6-diamine], in that order: 1070 nM and 57.4 nM.
With `Cn1ncc2c(Nc3cccc(F)c3)nc(NCC3(N)CC3)nc21` [Compound 2.29, 6-N-[(1-aminocyclopropyl)methyl]-4-N-(3-fluorophenyl)-1-methylpyrazolo[3,4-d]pyrimidine-4,6-diamine], the values for the IC50 in experiment [1] and in experiment [2] were 3000 nM and 444 nM, respectively.
For the compound `Cc1nn(C)c2nc(NCC3(N)CC3)nc(Nc3ccc(C(F)(F)F)cc3)c12` [Compound 2.30, 6-N-[(1-aminocyclopropyl)methyl]-1,3-dimethyl-4-N-[4-(trifluoromethyl)phenyl]pyrazolo[3,4-d]pyrimidine-4,6-diamine], the IC50 in experiment [1] worked out at 1780 nM; in experiment [2], 545 nM.
As to `Cn1ncc2c(Nc3ccc(C#N)cc3)nc(NCC3(N)CC3)nc21` [Compound 2.31, 4-[[6-[(1-aminocyclopropyl)methylamino]-1-methylpyrazolo[3,4-d]pyrimidin-4-yl]amino]benzonitrile], the IC50 in experiment [1] turned out to be 8240 nM; in experiment [2], 976 nM.
On to `Cn1ncc2c(Nc3ccc(OC(F)(F)F)cc3)nc(NCC3(N)CC3)nc21` [Compound 2.32, 6-N-[(1-aminocyclopropyl)methyl]-1-methyl-4-N-[4-(trifluoromethoxy)phenyl]pyrazolo[3,4-d]pyrimidine-4,6-diamine], for which the IC50 is 815 nM in experiment [1] and 176 nM in experiment [2].
With `COc1ccc(Nc2nc(NCC3(N)CC3)nc3c2cnn3C)cc1` [Compound 2.33, 6-N-[(1-aminocyclopropyl)methyl]-4-N-(4-methoxyphenyl)-1-methylpyrazolo[3,4-d]pyrimidine-4,6-diamine], the IC50 was determined as 3860 nM in experiment [1] and 327 nM in experiment [2].
With `Cn1ncc2c(Nc3ccc(OC(F)F)cc3)nc(NCC3(N)CC3)nc21` [Compound 2.34, 6-N-[(1-aminocyclopropyl)methyl]-4-N-[4-(difluoromethoxy)phenyl]-1-methylpyrazolo[3,4-d]pyrimidine-4,6-diamine], the figures for the 50% inhibitory concentration (IC50) in experiment [1] and in experiment [2] were 1420 nM and 201 nM, respectively.
`Cn1ncc2c(Nc3cccc(Cl)c3)nc(NCC3(N)CC3)nc21` [Compound 2.35, 6-N-[(1-aminocyclopropyl)methyl]-4-N-(3-chlorophenyl)-1-methylpyrazolo[3,4-d]pyrimidine-4,6-diamine]: the half-maximal inhibitory concentration (IC50) is 1980 nM in experiment [1] and 260 nM in experiment [2].
For `Cn1ncc2c(Nc3ccc(C(F)F)cc3)nc(NCC3(N)CC3)nc21` [Compound 2.36, 6-N-[(1-aminocyclopropyl)methyl]-4-N-[4-(difluoromethyl)phenyl]-1-methylpyrazolo[3,4-d]pyrimidine-4,6-diamine], in that order: 1980 nM and 138 nM.
As to `Cn1ncc2c(NC34CC(C#N)(C3)C4)nc(NCC3(N)CC3)nc21` [Compound 2.37, 3-[[6-[(1-aminocyclopropyl)methylamino]-1-methylpyrazolo[3,4-d]pyrimidin-4-yl]amino]bicyclo[1.1.1]pentane-1-carbonitrile], the 50% inhibitory concentration (IC50) in experiment [1] turned out to be 16500 nM; in experiment [2], 8600 nM.
Taken in the same sequence, the figures for `Cn1ncc2c(Nc3ccc(F)c(F)c3)nc(NCC3(N)CC3)nc21` [Compound 2.39, 6-N-[(1-aminocyclopropyl)methyl]-4-N-(3,4-difluorophenyl)-1-methylpyrazolo[3,4-d]pyrimidine-4,6-diamine] were 2130 nM and 350 nM.
For `Cn1ncc2c(Nc3ccc(Cl)c(Cl)c3)nc(NCC3(N)CC3)nc21` [Compound 2.40, 6-N-[(1-aminocyclopropyl)methyl]-4-N-(3,4-dichlorophenyl)-1-methylpyrazolo[3,4-d]pyrimidine-4,6-diamine], the values for the half-inhibitory concentration (IC50) in experiment [1] and in experiment [2] were 234 nM and 33.3 nM, respectively.
For `COc1cc(Nc2nc(NCC3(N)CC3)nc3c2cnn3C)ccc1Cl` [Compound 2.41, 6-N-[(1-aminocyclopropyl)methyl]-4-N-(4-chloro-3-methoxyphenyl)-1-methylpyrazolo[3,4-d]pyrimidine-4,6-diamine], the IC50 was found to be 1610 nM in experiment [1] and 211 nM in experiment [2].
Turning to `COc1ccc(CNc2nc(NCC3(N)CC3)nc3c2cnn3C)c(OC)c1` [Compound 2.42, N6-[(1-aminocyclopropyl)methyl]-N4-[(2,4-dimethoxyphenyl)methyl]-1-methyl-pyrazolo[3,4-d]pyrimidine-4,6-diamine], the half-maximal inhibitory concentration (IC50) is 2990 nM in experiment [1] and 1260 nM in experiment [2].
For the compound `Cn1ncc2c(NC34CC(F)(C3)C4)nc(NCC3(N)CC3)nc21` [Compound 2.43, N6-[(1-aminocyclopropyl)methyl]-N4-{3-fluorobicyclo[1.1.1]pentan-1-yl}-1-methyl-1H-pyrazolo[3,4-d]pyrimidine-4,6-diamine], the half-inhibitory concentration (IC50) in experiment [1] was 5940 nM; in experiment [2], 2790 nM.
As to `Cn1ncc2c(Nc3ccc(C(F)(F)F)cc3)nc(NCC3(N)CC3)nc21` [Compound 2.44, 6-N-[(1-aminocyclopropyl)methyl]-1-methyl-4-N-[4-(trifluoromethyl)phenyl]pyrazolo[3,4-d]pyrimidine-4,6-diamine], the values for the half-inhibitory concentration (IC50) in experiment [1] and in experiment [2] were 329 nM and 56.5 nM, respectively.
`Cn1ncc2c(Nc3ccc(C(F)(F)F)nc3)nc(NCC3(N)CC3)nc21` [Compound 2.45, 6-N-[(1-aminocyclopropyl)methyl]-1-methyl-4-N-[6-(trifluoromethyl)pyridin-3-yl]pyrazolo[3,4-d]pyrimidine-4,6-diamine]: the IC50 in experiment [1] came out at 2470 nM; in experiment [2] it was 424 nM.
`Cn1ncc2c(Nc3ccc(Cl)cn3)nc(NCC3(N)CC3)nc21` [Compound 2.46, 6-N-[(1-aminocyclopropyl)methyl]-4-N-(5-chloropyridin-2-yl)-1-methylpyrazolo[3,4-d]pyrimidine-4,6-diamine]: the IC50 worked out at 6530 nM in experiment [1] and 2100 nM in experiment [2].
Take `Cn1ncc2c(Nc3cnc(C(F)(F)F)cn3)nc(NCC3(N)CC3)nc21` [Compound 2.47, N6-[(1-aminocyclopropyl)methyl]-1-methyl-N4-[5-(trifluoromethyl)pyrazin-2-yl]pyrazolo[3,4-d]pyrimidine-4,6-diamine]: the values for the IC50 in experiment [1] and in experiment [2] were 8300 nM and 4520 nM, respectively.

These data come from patent US20220370453A1 (Storm Therapeutics Ltd, priority 2019, published 2022).
